Data reported in the NIST ThermoML archive (doi:10.1016/j.jct.2011.01.010).

Test: osmotic coefficient (dimensionless); mn = molality of the nth substance listed, in mol/kg
Conditions: 323.15 K, Liquid, vapor pressure osmometry

CCCCO [butan-1-ol] + COS(=O)(=O)[O-].Cc1ccc[n+](C)c1
Conditions	osmotic coefficient
m1 = 0.0259	0.824
m1 = 0.0466	0.746
m1 = 0.1056	0.668
m1 = 0.2078	0.601
m1 = 0.3112	0.528
m1 = 0.4005	0.501
m1 = 0.5132	0.469
m1 = 0.9858	0.425
m1 = 1.282	0.406
m1 = 1.685	0.394
m1 = 2.078	0.387
m1 = 2.497	0.375
m1 = 2.911	0.368

CCC(C)O (centres undefined) [butan-2-ol] + COS(=O)(=O)[O-].Cc1ccc[n+](C)c1
Conditions	osmotic coefficient
m1 = 0.0458	0.818
m1 = 0.0728	0.729
m1 = 0.0933	0.696
m1 = 0.2019	0.605
m1 = 0.3113	0.547
m1 = 0.3991	0.512
m1 = 0.4981	0.474
m1 = 0.6846	0.441
m1 = 0.9815	0.408
m1 = 1.285	0.383
m1 = 1.687	0.361
m1 = 2.105	0.345
m1 = 2.501	0.333
m1 = 2.914	0.327
m1 = 3.291	0.32

CCCCCO [pentan-1-ol] + COS(=O)(=O)[O-].Cc1ccc[n+](C)c1
Conditions	osmotic coefficient
m1 = 0.0303	0.77
m1 = 0.0543	0.677
m1 = 0.0875	0.618
m1 = 0.1103	0.584
m1 = 0.2153	0.505
m1 = 0.3078	0.464
m1 = 0.412	0.425
m1 = 0.5092	0.401
m1 = 0.8077	0.372
m1 = 1.106	0.352
m1 = 1.71	0.33
m1 = 2.229	0.315
m1 = 2.726	0.308
m1 = 3.198	0.3

CCCO [propan-1-ol] + COS(=O)(=O)[O-].Cc1ccc[n+](C)c1
Conditions	osmotic coefficient
m1 = 0.0785	0.885
m1 = 0.0971	0.803
m1 = 0.2088	0.711
m1 = 0.3089	0.671
m1 = 0.4144	0.658
m1 = 0.5126	0.642
m1 = 0.8126	0.609
m1 = 1.104	0.576
m1 = 1.401	0.548
m1 = 1.691	0.533
m1 = 2.219	0.508
m1 = 2.721	0.494
m1 = 3.211	0.478

CC(C)O [propan-2-ol] + COS(=O)(=O)[O-].Cc1ccc[n+](C)c1
Conditions	osmotic coefficient
m1 = 0.072	0.969
m1 = 0.1185	0.873
m1 = 0.2149	0.767
m1 = 0.3087	0.699
m1 = 0.408	0.654
m1 = 0.5005	0.628
m1 = 0.7082	0.57
m1 = 1.013	0.532
m1 = 1.296	0.51
m1 = 1.72	0.49
m1 = 2.095	0.468
m1 = 2.494	0.46
m1 = 2.956	0.436
m1 = 3.326	0.419
